The experiment addresses T1, human recombinant P2X7 receptors (Homo sapiens, UniProt Q99572).
T1 construct: expressed in transfected cells
T1 sequence (Q99572 1-595): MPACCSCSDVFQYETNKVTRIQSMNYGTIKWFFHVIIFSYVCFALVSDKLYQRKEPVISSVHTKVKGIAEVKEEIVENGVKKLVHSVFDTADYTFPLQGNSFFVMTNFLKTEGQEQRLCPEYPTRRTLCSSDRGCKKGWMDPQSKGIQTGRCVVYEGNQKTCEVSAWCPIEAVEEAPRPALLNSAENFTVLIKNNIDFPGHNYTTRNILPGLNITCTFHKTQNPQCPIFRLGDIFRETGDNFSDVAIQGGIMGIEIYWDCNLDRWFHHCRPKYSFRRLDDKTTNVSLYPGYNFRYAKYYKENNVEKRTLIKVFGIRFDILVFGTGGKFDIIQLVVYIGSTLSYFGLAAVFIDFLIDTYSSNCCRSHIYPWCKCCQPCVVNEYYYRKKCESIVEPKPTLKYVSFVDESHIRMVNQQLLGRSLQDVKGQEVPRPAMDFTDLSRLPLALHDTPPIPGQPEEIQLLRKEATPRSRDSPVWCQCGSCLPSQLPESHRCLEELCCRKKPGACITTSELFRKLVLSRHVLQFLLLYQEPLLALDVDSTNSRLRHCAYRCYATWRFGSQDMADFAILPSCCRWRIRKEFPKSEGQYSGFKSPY
The experiment in a line: Ethidium Accumulation Assay 2 (HEK293 cells, ATP-induced ethidium uptake). It is filed as cell-based. Conditions: HEK293 cells expressing human P2X7. The procedure:
Eithidium Accumulation Assay 2
Human Embryonic Kidney (HEK) 293 cells, stably expressing human recombinant P2X7 receptors, were grown in poly-D-lysine pretreated 96 well plates for 24 hours at 37° C.
The cells were washed with assay buffer (100 μL), before addition of 25 μL of assay buffer and then 25 ul of assay buffer containing the putative P2X7 receptor antagonist compound. The cells were then incubated at room temperature (19-21° C.) for 30 min before addition of ATP solution (50 μM). […] Antagonist pIC50 values for blocking ATP responses were determined using iterative curve fitting techniques.

[1] abbreviates: sometimes mean of more than one measurement, read-out: Assay 2 (antagonist pIC50 for blocking ATP responses) (converted).

Like-named read-outs stand apart in the source and are kept apart here.

For `O=C(c1cccc(C(F)(F)F)c1Cl)N1CCn2c(nnc2-c2ncns2)C1` [Example 164, 7-{[2-chloro-3-(trifluoromethyl)phenyl]carbonyl}-3-(1,2,4-thiadiazol-5-yl)-5,6,7,8-tetrahydro[1,2,4]triazolo[4,3-a]pyrazine], the IC50 under setting [1] was < 10 nM. On the same count and under the same terms, in the case of `O=C(c1ccc(F)cc1Cl)N1CCn2c(nnc2-c2cnc(F)cn2)C1` [Example 165, 7-[(2-chloro-4-fluorophenyl)carbonyl]-3-(5-fluoro-2-pyrazinyl)-5,6,7,8-tetrahydro[1,2,4]triazolo[4,3-a]pyrazine] it was < 100 nM; in that of `O=C(c1ccc(Cl)c(F)c1Cl)N1CCn2c(nnc2-c2ccns2)C1` [Example 178, 7-[(2,4-dichloro-3-fluorophenyl)carbonyl]-3-(5-isothiazolyl)-5,6,7,8-tetrahydro[1,2,4]triazolo[4,3-a]pyrazine], < 100 nM; in that of `Cc1c(C(=O)N2CCn3c(nnc3-c3cnccn3)C2)ccc(F)c1F` [Example 151, 7-[(3,4-difluoro-2-methylphenyl)carbonyl]-3-(2-pyrazinyl)-5,6,7,8-tetrahydro[1,2,4]triazolo[4,3-a]pyrazine], < 10 nM.

Take `O=C(c1ccc(Cl)c(F)c1Cl)N1CCn2c(nnc2-c2ncns2)C1` [Example 186, 7-[(2,4-Dichloro-3-fluorophenyl)carbonyl]-3-(1,2,4-thiadiazol-5-yl)-5,6,7,8-tetrahydro[1,2,4]triazolo[4,3-a]pyrazine]: the IC50 under setting [1] was < 10 nM. Consider `Cc1c(C(=O)N2CCn3c(nnc3-c3ccc(F)cn3)C2)ccc(F)c1Cl` [Example 156, 7-[(3-chloro-4-fluoro-2-methylphenyl)carbonyl]-3-(5-fluoro-2-pyridinyl)-5,6,7,8-tetrahydro[1,2,4]triazolo[4,3-a]pyrazine], for which the IC50 under setting [1] is < 10 nM. Consider `O=C(c1ccc(Cl)c(F)c1Cl)N1CCn2c(nnc2-c2ccccn2)C1` [Example 173, 7-[(2,4-dichloro-3-fluorophenyl)carbonyl]-3-(2-pyridinyl)-5,6,7,8-tetrahydro[1,2,4]triazolo[4,3-a]pyrazine], for which, under setting [1], the IC50 was < 10 nM. On the same count and under the same terms, in the case of `COc1cccc(-c2nnc3n2CCN(C(=O)c2ccc(Cl)c(F)c2Cl)C3)n1` [Example 176, 7-[(2,4-dichloro-3-fluorophenyl)carbonyl]-3-[6-(methyloxy)-2-pyridinyl]-5,6,7,8-tetrahydro[1,2,4]triazolo[4,3-a]pyrazine] it was < 100 nM. Regarding `Cc1scnc1-c1nnc2n1CCN(C(=O)c1cccc(Cl)c1C)C2` [Example 207, 7-[(3-chloro-2-methylphenyl)carbonyl]-3-(5-methyl-1,3-thiazol-4-yl)-5,6,7,8-tetrahydro[1,2,4]triazolo[4,3-a]pyrazine], under setting [1], the IC50 was < 100 nM. The same measure, in the same setting: with `O=C(c1ccc(Cl)c(F)c1Cl)N1CCn2c(nnc2-c2cccnc2O)C1` [Example 171, 3-{7-[(2,4-dichloro-3-fluorophenyl)carbonyl]-5,6,7,8-tetrahydro[1,2,4]triazolo[4,3-a]pyrazin-3-yl}-2-pyridinol] the figure was < 100 nM; with `Cc1csc(-c2nnc3n2CCN(C(=O)c2ccc(Cl)c(F)c2Cl)C3)n1` [Example 191, 7-[(2,4-Dichloro-3-fluorophenyl)carbonyl]-3-(4-methyl-1,3-thiazol-2-yl)-5,6,7,8-tetrahydro[1,2,4]triazolo[4,3-a]pyrazine], < 100 nM; with `O=C(c1cccc(C(F)(F)F)c1Cl)N1CCn2c(nnc2-c2cccnc2O)C1` [Example 163, 3-(7-{[2-chloro-3-(trifluoromethyl)phenyl]carbonyl}-5,6,7,8-tetrahydro[1,2,4]triazolo[4,3-a]pyrazin-3-yl)-2-pyridinol], < 100 nM. As to `O=C(c1ccc(Cl)cc1Cl)N1CCn2c(nnc2-c2ccns2)C1` [Example 158, 7-[(2,4-dichlorophenyl)carbonyl]-3-(5-isothiazolyl)-5,6,7,8-tetrahydro[1,2,4]triazolo[4,3-a]pyrazine], the IC50 under setting [1] was < 100 nM. The same measure, in the same setting: with `[2H]c1ccnc(-c2nnc3n2CCN(C(=O)c2ccc(Cl)c(F)c2Cl)C3)c1` [Example 182, 7-[(2,4-Dichloro-3-fluorophenyl)carbonyl]-3-(2-pyridinyl)-5,6,7,8-tetrahydro[1,2,4]triazolo[4,3-a]pyrazine-d1] the figure was < 10 nM; with `Cc1ccc(-c2nnc3n2CCN(C(=O)c2ccc(F)c(Cl)c2Cl)C3)o1` [Example 167, 7-[(2,3-Dichloro-4-fluorophenyl)carbonyl]-3-(5-methyl-2-furanyl)-5,6,7,8-tetrahydro[1,2,4]triazolo[4,3-a]pyrazine], < 100 nM. The same measure, in the same setting: with `O=C(c1ccc(Cl)c(F)c1Cl)N1CCn2c(nnc2-c2cncs2)C1` [Example 185, 7-[(2,4-Dichloro-3-fluorophenyl)carbonyl]-3-(1,3-thiazol-5-yl)-5,6,7,8-tetrahydro[1,2,4]triazolo[4,3-a]pyrazine] the figure was < 100 nM. Same read-out and setting: in the case of `Cc1c(C(=O)N2CCn3c(nnc3-c3cnccn3)C2)ccc(F)c1Cl` [Example 146, 7-[(3-chloro-4-fluoro-2-methylphenyl)carbonyl]-3-(2-pyrazinyl)-5,6,7,8-tetrahydro[1,2,4]triazolo[4,3-a]pyrazine] it was < 10 nM; in that of `Cc1c(Cl)ccc(C(=O)N2CCn3c(nnc3-c3cnccn3)C2)c1Cl` [Example 154, 7-[(2,4-dichloro-3-methylphenyl)carbonyl]-3-(2-pyrazinyl)-5,6,7,8-tetrahydro[1,2,4]triazolo[4,3-a]pyrazine], < 10 nM. On to `Cc1nnsc1-c1nnc2n1CCN(C(=O)c1ccc(Cl)c(F)c1Cl)C2` [Example 179, 7-[(2,4-Dichloro-3-fluorophenyl)carbonyl]-3-(4-methyl-1,2,3-thiadiazol-5-yl)-5,6,7,8-tetrahydro[1,2,4]triazolo[4,3-a]pyrazine], for which the IC50 (read-out: Assay 2 (antagonist pIC50 for blocking ATP responses), numeric value (converted)) is 631 nM. In the case of `O=C(c1ccc(Cl)c(F)c1Cl)N1CCn2c(nnc2-c2ccc(F)cc2O)C1` [Example 150, 2-{7-[(2,4-dichloro-3-fluorophenyl)carbonyl]-5,6,7,8-tetrahydro[1,2,4]triazolo[4,3-a]pyrazin-3-yl}-5-fluorophenol], the IC50 under setting [1] was < 100 nM. Same read-out and setting: with `[2H]c1ccc(-c2nnc3n2CCN(C(=O)c2ccc(Cl)c(F)c2Cl)C3)nc1` [Example 183, 7-[(2,4-Dichloro-3-fluorophenyl)carbonyl]-3-(2-pyridinyl)-5,6,7,8-tetrahydro[1,2,4]triazolo[4,3-a]pyrazine-d1] the figure was < 10 nM. Still for that read-out and setting: in the case of `Cc1ccc(C(=O)N2CCn3c(nnc3-c3cnccn3)C2)c(C(F)(F)F)c1` [Example 148, 7-{[4-methyl-2-(trifluoromethyl)phenyl]carbonyl}-3-(2-pyrazinyl)-5,6,7,8-tetrahydro[1,2,4]triazolo[4,3-a]pyrazine] it was < 501 nM.

`O=C(c1ccc(Cl)cc1Cl)N1CCn2c(nnc2-c2ccon2)C1` [Example 161, 7-[(2,4-dichlorophenyl)carbonyl]-3-(3-isoxazolyl)-5,6,7,8-tetrahydro[1,2,4]triazolo[4,3-a]pyrazine]: the IC50 under setting [1] is < 501 nM. Still for that read-out and setting: with `O=C(c1ccc(F)cc1Cl)N1CCn2c(nnc2-c2nccs2)C1` [Example 144, 7-[(2-chloro-4-fluorophenyl)carbonyl]-3-(1,3-thiazol-2-yl)-5,6,7,8-tetrahydro[1,2,4]triazolo[4,3-a]pyrazine] the figure was < 100 nM; with `Cc1c(Cl)cccc1C(=O)N1CCn2c(nnc2-c2nccs2)C1` [Example 200, 7-[(3-Chloro-2-methylphenyl)carbonyl]-3-(1,3-thiazol-2-yl)-5,6,7,8-tetrahydro[1,2,4]triazolo[4,3-a]pyrazine], < 100 nM.

Turning to `COc1ccnc(-c2nnc3n2CCN(C(=O)c2ccc(Cl)c(F)c2Cl)C3)c1` [Example 174, 7-[(2,4-dichloro-3-fluorophenyl)carbonyl]-3-[4-(methyloxy)-2-pyridinyl]-5,6,7,8-tetrahydro[1,2,4]triazolo[4,3-a]pyrazine], the IC50 under setting [1] is < 10 nM. Regarding `O=C(c1ccc(Cl)c(F)c1Cl)N1CCn2c(nnc2-c2ncccc2F)C1` [Example 170, 7-[(2,4-dichloro-3-fluorophenyl)carbonyl]-3-(3-fluoro-2-pyridinyl)-5,6,7,8-tetrahydro[1,2,4]triazolo[4,3-a]pyrazine], under setting [1], the IC50 is < 10 nM. The same measure, in the same setting: in the case of `O=C(c1ccc(F)c(Cl)c1Cl)N1CCn2c(nnc2-c2ncns2)C1` [Example 169, 7-[(2,3-dichloro-4-fluorophenyl)carbonyl]-3-(1,2,4-thiadiazol-5-yl)-5,6,7,8-tetrahydro[1,2,4]triazolo[4,3-a]pyrazine] it was < 10 nM; in that of `Cc1ccc(C(=O)N2CCn3c(nnc3-c3cnccn3)C2)c(Cl)c1Cl` [Example 152, 7-[(2,3-dichloro-4-methylphenyl)carbonyl]-3-(2-pyrazinyl)-5,6,7,8-tetrahydro[1,2,4]triazolo[4,3-a]pyrazine], < 10 nM.

For the origin of these results see US8501946B2 (Glaxo Group Limited, priority 2009, dated 2013).
